In test [1] the target is T1, GST tagged LXRbeta LBD (ligand binding domain) (Homo sapiens, UniProt P55055).
T1 construct: purchased Invitrogen pv4658.pps
T1 sequence (P55055 222-460 limits assumed): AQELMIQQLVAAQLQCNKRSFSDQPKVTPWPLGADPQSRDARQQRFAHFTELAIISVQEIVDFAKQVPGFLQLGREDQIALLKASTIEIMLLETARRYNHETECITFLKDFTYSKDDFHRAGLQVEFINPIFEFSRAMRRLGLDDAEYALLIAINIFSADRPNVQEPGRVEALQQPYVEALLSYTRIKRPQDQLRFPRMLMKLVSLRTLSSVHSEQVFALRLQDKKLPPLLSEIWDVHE
Kind of test: LanthaScreen TR-FRET Liver X Receptor Coactivator Assay, LXR beta-LBD. It is filed as biochemical. Conditions: relative to reference T0901317; for EC50: Inflection Point (potency), co-activator recruitment, read-out: LXR beta IP; for Emax: activity at max dose (efficacy), read-out: LXR beta act @ max dose (%). The essentials: (§1)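 Compound-induced coactivator recruitment measured by TR-FRET between a terbium anti-GST antibody bound to the GST-LBD (LXRα or LXRβ, human) and a fluorescein coactivator peptide, after incubation at room temperature. Potency (inflection point) and efficacy (Emax) referenced to T0901317.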

Test [2] deals with T2, GST tagged LXRalpha LBD (ligand binding domain) (Homo sapiens, UniProt Q13133).
T2 construct: purchased Invitrogen pv4655
T2 sequence (Q13133 209-447 limits assumed): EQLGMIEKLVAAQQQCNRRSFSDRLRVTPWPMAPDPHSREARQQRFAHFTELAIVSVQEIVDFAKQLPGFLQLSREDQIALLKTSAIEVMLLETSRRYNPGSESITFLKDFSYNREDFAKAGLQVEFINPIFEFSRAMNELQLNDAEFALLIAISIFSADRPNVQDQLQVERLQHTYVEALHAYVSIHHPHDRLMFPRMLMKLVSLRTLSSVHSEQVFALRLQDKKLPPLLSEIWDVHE
Kind of test: LanthaScreen TR-FRET Liver X Receptor Coactivator Assay, LXR alpha-LBD. The test is classed as biochemical. Conditions: relative to reference T0901317; for EC50 / LXR alpha IP (nM): Inflection Point (potency), co-activator recruitment; for EC50: read-out: LXR alpha IP; for Emax: activity at max dose (efficacy), read-out: LXR alpha act @ max dose (%). The essentials: as §1
(TR-FRET usually uses a lanthanide donor and a delayed reading to cut background.)

Take `COC(=O)c1ccc(N2CCC(C3CCN(C(=O)c4c(F)cccc4F)CC3)CC2)cc1Cl` [Example E-2, methyl 2-chloro-4-{1′-[(2,6-difluorophenyl)carbonyl]-4,4′-bipiperidin-1-yl}benzoate]: in test [1], the EC50 is 153 nM and the Emax came to 25%. In addition, in test [2], the EC50 was determined as 58 nM and the Emax was 26%.
As for `COC1CN(C(=O)c2ccc(N3CCC(C4CCN(C(=O)[C@](O)(c5ccccc5)C(F)(F)F)CC4)CC3)cc2Cl)C1` [Example E-35, (2R)-3-(1′-{3-chloro-4-[(3-methoxyazetidin-1-yl)carbonyl]phenyl}-4,4′-bipiperidin-1-yl)-1,1,1-trifluoro-3-oxo-2-phenylpropan-2-ol], in test [1], the EC50 is 364 nM and the Emax came to 57%. In addition, in test [2], the EC50 amounted to 2460 nM and the Emax was 19%.
Consider `O=C1CCN(C(=O)c2ccc(N3CCC(C4CCN(C(=O)[C@](O)(c5ccccc5)C(F)(F)F)CC4)CC3)cc2Cl)C1` [Example E-31], for which, in test [1], the EC50 was 182 nM and the Emax worked out at 79%. In test [2], the EC50 came to 2990 nM and the Emax is 28%.
On to `CN(C)C(=O)c1ccc(N2CCC(C3CCN(C(=O)C(C)(C)c4ccccc4Cl)CC3)CC2)cc1Cl` [Example A-83, 2-chloro-4-{1′-[2-(2-chlorophenyl)-2-methylpropanoyl]-4,4′-bipiperidin-1-yl}-N,N-dimethylbenzamide], for which, in test [1], the EC50 worked out at 15 nM and the Emax worked out at 115%. In addition, in test [2], the EC50 turned out to be 594 nM and the Emax is 74%.
With `C=C(C)C(O)(C(=O)N1CCC(C2CCN(c3ccc(C(=O)N(C)C)c(Cl)c3)CC2)CC1)C(F)(F)F` (stereo not shown) [Example A-31, 2-chloro-4-{1′-[2-hydroxy-3-methyl-2-(trifluoromethyl)but-3-enoyl]-4,4′-bipiperidin-1-yl}-N,N-dimethylbenzamide], in test [1], the EC50 came out at 61 nM and the Emax is 86%. Besides, in test [2], the EC50 was 362 nM and the Emax stood at 27%.
For the compound `CN(C)C(=O)c1ccc(N2CCC(C3CCN(C(=O)C(C)(C)c4ccc(Cl)cc4Cl)CC3)CC2)cc1Cl` [Example A-60, 2-chloro-4-{1′-[2-(2,4-dichlorophenyl)-2-methylpropanoyl]-4,4′-bipiperidin-1-yl}-N,N-dimethylbenzamide], the figures for the EC50 in test [1] and in test [2] were 33 nM and 717 nM, respectively. The Emax in test [1] turned out to be 109%; in test [2] it was 32%.
In the same order, the values of `CN(Cc1noc(C2CC2)n1)C(=O)c1ccc(N2CCC(C3CCN(C(=O)[C@](O)(c4ccccc4)C(F)(F)F)CC3)CC2)cc1Cl` [Example E-54, 2-chloro-N-[(5-cyclopropyl-1,2,4-oxadiazol-3-yl)methyl]-N-methyl-4-{1′-[(2R)-3,3,3-trifluoro-2-hydroxy-2-phenylpropanoyl]-4,4′-bipiperidin-1-yl}benzamide] are 35 nM, 1460 nM, 93% and 55%.
For `CN(CCO)C(=O)c1ccc(N2CCC(C3CCN(C(=O)[C@](O)(c4ccccc4)C(F)(F)F)CC3)CC2)cc1Cl` [Example E-58, 2-chloro-N-(2-hydroxyethyl)-N-methyl-4-{1′-[(2R)-3,3,3-trifluoro-2-hydroxy-2-phenylpropanoyl]-4,4′-bipiperidin-1-yl}benzamide], in test [1], the EC50 came to 57 nM and the Emax was 98%. Further, in test [2], the EC50 was determined as 1830 nM and the Emax was determined as 48%.
As for `CN(C(=O)c1ccc(N2CCC(C3CCN(C(=O)[C@](O)(c4ccccc4)C(F)(F)F)CC3)CC2)cc1Cl)C1CCOC1` (stereo partly drawn) [Example E-53, 2-chloro-N-methyl-N-(tetrahydrofuran-3-yl)-4-{1′-[(2R)-3,3,3-trifluoro-2-hydroxy-2-phenylpropanoyl]-4,4′-bipiperidin-1-yl}benzamide], in test [1], the EC50 was 219 nM and the Emax came to 98%. Besides, in test [2], the EC50 was determined as 1600 nM and the Emax came out at 34%.
Regarding `CC(C)C(O)(C(=O)N1CCC(C2CCN(c3ccc(C(=O)N4CC(F)(F)C4)c(Cl)c3)CC2)CC1)C(F)(F)F` (stereo not shown) [Example E-3, 2-[(1′-{3-chloro-4-[(3,3-difluoroazetidin-1-yl)carbonyl]phenyl}-4,4′-bipiperidin-1-yl)carbonyl]-1,1,1-trifluoro-3-methylbutan-2-ol], the values for the EC50 in test [1] and in test [2] were 297 nM and 127 nM, respectively. Besides, the Emax worked out at 81% in test [1] and 30% in test [2].
Regarding `CN(C)C(=O)c1ccc(N2CCC(C3CCN(S(=O)(=O)c4c(Cl)cccc4Cl)CC3)CC2)cc1Cl` [Example A-104, 2-chloro-4-{1′-[(2,6-dichlorophenyl)sulfonyl]-4,4′-bipiperidin-1-yl}-N,N-dimethylbenzamide], the EC50 in test [1] is 21 nM; in test [2], 2340 nM. Further, the Emax in test [1] came to 129%; in test [2] it was 67%.
In the case of `CN(C)C(=O)c1ccc(N2CCC(C3CCN(C(=O)C4(c5ccc(Cl)cc5Cl)CCC4)CC3)CC2)cc1Cl` [Example A-77, 2-chloro-4-(1′-{[1-(2,4-dichlorophenyl)cyclobutyl]carbonyl}-4,4′-bipiperidin-1-yl)-N,N-dimethylbenzamide], in test [1], the EC50 came to 52 nM and the Emax was determined as 86%. In test [2], the EC50 worked out at 618 nM and the Emax was 31%.
In the case of `CC(C)C(O)(C(=O)N1CCC(C2CCN(c3ccc(C(=O)N(C)C)c(Cl)n3)CC2)CC1)C(F)(F)F` (stereo in doubt) [Example B-5, 2-chloro-6-{1′-[(2R)-2-hydroxy-3-methyl-2-(trifluoromethyl)butanoyl]-4,4′-bipiperidin-1-yl}-N,N-dimethylpyridine-3-carboxamide], in test [1], the EC50 turned out to be 27 nM and the Emax is 115%. In addition, in test [2], the EC50 was determined as 1100 nM and the Emax turned out to be 61%.
Take `Cc1nnc(CN(C)C(=O)c2ccc(N3CCC(C4CCN(C(=O)[C@](O)(c5ccccc5)C(F)(F)F)CC4)CC3)cc2Cl)o1` [Example E-47, 2-chloro-N-methyl-N-[(5-methyl-1,3,4-oxadiazol-2-yl)methyl]-4-{1′-[(2R)-3,3,3-trifluoro-2-hydroxy-2-phenylpropanoyl]-4,4′-bipiperidin-1-yl}benzamide]: in test [1], the EC50 was 334 nM and the Emax was found to be 71%. Besides, in test [2], the “LXR alpha IP (nM)” value was “NO IP” and the Emax stood at 10%.
In the same order, the values of `O=C(c1ccc(N2CCC(C3CCN(C(=O)[C@](O)(c4ccccc4)C(F)(F)F)CC3)CC2)cc1Cl)N1CCCC2(CC2)C1` [Example E-37, (2R)-3-{1′-[4-(5-azaspiro[2.5]oct-5-ylcarbonyl)-3-chlorophenyl]-4,4′-bipiperidin-1-yl}-1,1,1-trifluoro-3-oxo-2-phenylpropan-2-ol] are 216 nM, 70%, “NO IP” and 5%.
For `CCCC(O)(C(=O)N1CCC(C2CCN(c3ccc(C(=O)N(C)C)c(Cl)c3)CC2)CC1)C(F)(F)F` (stereo not shown) [Example A-70, 2-chloro-4-{1′-[2-hydroxy-2-(trifluoromethyl)pentanoyl]-4,4′-bipiperidin-1-yl}-N,N-dimethylbenzamide], in test [1], the EC50 amounted to 177 nM and the Emax worked out at 109%. Moreover, in test [2], the EC50 was determined as 3000 nM and the Emax was 52%.

The values above are taken from US20180305332A1, “Bispiperidinyl Derivatives as Liver X Receptor Beta Agonists, Compositions, and Their Use” (Merck Sharp & Dohme Corp., priority 2015, published 2018).
